Assay results as given in patent publication US7332279B2 (Glycozym APS, priority 1999, dated 2008).

Experiments:
Assay type in all cases: biochemical
[1] = molecular target: T1, β3Gal-T1 (Homo sapiens, UniProt Q9Y5Z6); assay: Galactosyltransferase assay, recombinant β3Gal-T1, saccharide acceptors
T1 construct: The kinetic properties were determined with partially purified, secreted forms of the enzymes; made in house; host or cells: baculovirus; Sf9 / High Five insect cells, medium
T1 sequence (Q9Y5Z6 27-326 limits assumed): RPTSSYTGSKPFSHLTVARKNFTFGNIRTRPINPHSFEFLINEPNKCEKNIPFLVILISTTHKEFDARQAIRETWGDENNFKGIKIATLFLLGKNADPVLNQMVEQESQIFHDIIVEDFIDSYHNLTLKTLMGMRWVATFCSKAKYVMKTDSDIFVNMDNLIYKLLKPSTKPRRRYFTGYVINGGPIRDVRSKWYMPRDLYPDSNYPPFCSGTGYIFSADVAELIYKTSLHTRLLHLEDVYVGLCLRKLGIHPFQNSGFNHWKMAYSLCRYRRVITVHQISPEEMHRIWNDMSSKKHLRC

[2] = molecular target: T2, β4Gal-T2 (Homo sapiens, UniProt O60909); assay: Galactosyltransferase assay, recombinant β4Gal-T2, saccharide acceptors
T2 construct: The kinetic properties were determined with partially purified, secreted forms of the enzymes; made in house; host or cells: baculovirus; insect cells (Sf9 / High Five)
T2 sequence (O60909 37-372 limits assumed): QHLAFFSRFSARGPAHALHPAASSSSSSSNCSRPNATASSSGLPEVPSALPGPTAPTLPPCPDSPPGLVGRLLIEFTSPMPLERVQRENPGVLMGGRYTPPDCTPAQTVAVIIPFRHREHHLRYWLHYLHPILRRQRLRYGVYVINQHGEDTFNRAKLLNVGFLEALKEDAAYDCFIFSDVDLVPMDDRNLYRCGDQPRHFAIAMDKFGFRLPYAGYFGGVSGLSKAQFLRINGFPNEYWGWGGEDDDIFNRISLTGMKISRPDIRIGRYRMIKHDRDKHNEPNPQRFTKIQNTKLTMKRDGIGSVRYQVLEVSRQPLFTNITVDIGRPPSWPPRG
Experimental: (§1) An expression construct (pAcGP67-β3Gal-T5-sol) designed to exclude the hydrophobic transmembrane segment and to encode amino acid residues 25-310, was prepared by PCR using P1 genomic DNA, and the primer pair EBER1300 sol (5′-[…]) (SEQ ID NO:3) and EBER1310 (5′-[…]) (SEQ ID NO:4) (FIG. 1), which included BamHI restriction sites. PCR product was cloned into the BamHI site of pAcGP67B (Pharmingen). An expression construct (pVL-β3Gal-T5-full) designed to encode the full coding sequence (from first ATG, FIG. 1) was prepared by PCR with P1 genomic DNA using the primer pair EBER1309 (5′-[…]) (SEQ ID NO:5) and EBER1310. This PCR product was cloned into the BamHI site of pVL1193 (Pharmingen). Both soluble and full length constructs were fully sequenced to confirm fidelity. Plasmids pAcGP67-β3GalT5-sol and pVL-β3Gal-T5-full were co-transfected with Baculo-Gold™ DNA (Pharmingen) as described previously (Bennett, E. P., Hassan, H. and Clausen, H. cDNA cloning and expression of a novel human UDP-N-acetyl-alpha-D-galactosamine. Polypeptide N-acetyl-galactosaminyl-transferase, GalNAc-T3. J. Biol. Chem. 271:17006-17012, 1996). Recombinant Baculo-virus were obtained after two successive amplifications in Sf9 cells grown in serum-containing medium, and titers of virus were estimated by titration in 24-well plates with monitoring of enzyme activities. […] Polypeptide N-acetyl-galactosaminyl-transferase, GalNAc-T3. J. Biol. Chem. 271:17006-17012, 1996). For large scale expression amplified virus was used to infect High Five™ cells grown in serum-free media (Invitrogen) in upright roller bottles shaking at 140 rpm and 27° C.
(§2) The kinetic properties were determined with partially purified, secreted forms of the enzymes. Semipurification of enzymes from serum-free medium of infected High-Five™ cells was performed by sequential Amberlite, DEAE-Sephacel and 5-Sepharose chromatography as described previously (Wandall, H. H., Hassan, H., Mirgorodskaya, E., et al. Substrate specificities of three. members of the human UDP-N-acetyl-alpha-D-galactosamine:Polypeptide Nacetylgalactosaminyltransferase family, GalNAc-T1, -T2, and -T3. J. Biol. Chem. 272:23503-23514, 1997). Comparisons of enzymes were performed relatively to the activity obtained with βGlcNAc-Bz1 (Tables II and III). Full length enzymes were assayed with 1% Triton CF54 homogenates of washed cells. Enzyme assays were performed in 50 μl total reaction mixtures containing 25 mM Cacodylate (pH 7.5), 10 mM MnCl2, 0.25% Triton X-100, 100 μM UDP-[^14C]-Gal (2,600 cpm/nmol) (Amersham), and varying concentrations of acceptor substrates (Sigma) (see Table I for structures). Reaction products were quantified by Dowex-1 chromatography. […] The transfer of Gal was evaluated after acid precipitation by filtration through Whatman GF/C glass fibre filters. […] Assays with glycolipid acceptors were conducted as previously described (Holmes, E. H. Characterization and membrane organization of beta 1-3- and beta 1-4-galactosyltransferases from human colonic adenocarcinoma cell lines Cob 205 and SW403: basis for preferential synthesis of type 1 chain lacto-series carbohydrate structures. Arch Biochem Biophys 270:630-646, 1989) in reaction mixtures containing 2.5 μmol HEPES buffer, pH 7.2, μmol MnCl2, 100 μg taurodeoxycholate or Triton CF-54, 20 μg acceptor glycolipid, 15 nmol UDP-[^14C]-galactose (13,000 cpm/nmol) and enzyme in a total volume of 100 μl. Conditions for incubation and product isolation were as previously described (Id.).

[3] = molecular target: T3, β4Gal-T3 (Homo sapiens, UniProt O60512); assay: Galactosyltransferase assay, recombinant β4Gal-T3, saccharide acceptors
T3 construct: The kinetic properties were determined with partially purified, secreted forms of the enzymes; made in house; host or cells: baculovirus; insect cells (Sf9 / High Five)
T3 sequence (O60512 32-393 limits assumed): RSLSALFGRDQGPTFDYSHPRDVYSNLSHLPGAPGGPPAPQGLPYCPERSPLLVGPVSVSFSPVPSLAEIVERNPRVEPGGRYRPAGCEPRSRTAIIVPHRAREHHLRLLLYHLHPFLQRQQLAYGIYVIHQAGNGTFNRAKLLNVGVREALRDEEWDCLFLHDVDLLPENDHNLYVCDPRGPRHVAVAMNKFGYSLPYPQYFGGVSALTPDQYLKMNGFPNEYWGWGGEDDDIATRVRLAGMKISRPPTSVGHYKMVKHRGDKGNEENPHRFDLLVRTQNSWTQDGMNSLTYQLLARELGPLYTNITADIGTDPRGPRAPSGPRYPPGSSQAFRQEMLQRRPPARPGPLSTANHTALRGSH
Experimental: as §1, §2

Compound	β3Gal-T1 activity, acceptor 0.2 mM [1] [nmol/min]	β3Gal-T1 ratio to value with βGlcNAc-Bzl, acceptor 0.2 mM [1]	β3Gal-T1 activity, acceptor 2 mM [1] [nmol/min]	β3Gal-T1 ratio to value with βGlcNAc-Bzl, acceptor 2 mM [1]	β4Gal-T2 activity, acceptor 0.2 mM [2] [nmol/min]	β4Gal-T2 ratio to value with βGlcNAc-Bzl, acceptor 0.2 mM [2]	β4Gal-T2 activity, acceptor 2 mM ([2]; 2 mM) [nmol/min]	β4Gal-T2 ratio to value with βGlcNAc-Bzl, acceptor 2 mM ([2]; 2 mM)	β4Gal-T3 activity, acceptor 0.2 mM ([3]; 0.2 mM) [nmol/min]	β4Gal-T3 ratio to value with βGlcNAc-Bzl, acceptor 0.2 mM ([3]; 0.2 mM)	β4Gal-T3 activity, acceptor 2 mM ([3]; 2 mM) [nmol/min]	β4Gal-T3 ratio to value with βGlcNAc-Bzl, acceptor 2 mM ([3]; 2 mM)	β3Gal-T1 activity with β-D-GlcNAc-Bzl (Table III) ([1]; β-D-GlcNAc-Bzl at 80 mM) [nmol/min]	β3Gal-T1 activity with βGlcNAc-Bzl ([1]; β-D-GlcNAc-Bzl at 80 mM) [nmol/min]	β4Gal-T2 activity with βGlcNAc-Bzl ([2]; β-D-GlcNAc-Bzl at 0.25 mM) [nmol/min]	β4Gal-T3 activity with βGlcNAc-Bzl ([3]; β-D-GlcNAc-Bzl at 2 mM) [nmol/min]
CC(=O)NC1C(OC2C(O)C(CO)OC(Oc3ccc([N+](=O)[O-])cc3)C2NC(C)=O)OC(CO)C(O)C1O [β-D-GlcNAc-(1–3)-α-D-GalNAc-p-Nph]	0.0	(0.0)	0.0	(0.0)	0.2	(0.6)	0.01	(0.3)	0.1	(0.3)	0.03	(1.0)	–	–	–	–
CC(=O)N[C@H]1[C@H](OCc2ccccc2)O[C@H](CO)[C@@H](O)[C@@H]1O [β-D-GlcNAc-Bzl]	–	–	–	–	–	–	–	–	–	–	–	–	0.03	0.03	0.03	0.03
CC(=O)N[C@H]1[C@H](OC[C@H]2O[C@H](Oc3ccc([N+](=O)[O-])cc3)[C@H](NC(C)=O)[C@@H](O[C@@H]3O[C@H](CO)[C@H](O)[C@H](O)[C@H]3O)[C@H]2O)O[C@H](CO)[C@@H](O)[C@@H]1O [βGlcNAc(1,6)[βGal(1,3)]αGalNAc-p-Nph]	0.0	(0.0)	0.0	(0.0)	0.03	(1.0)	–	–	–	–	–	–	–	–	–	–
